For data set [1], the system named is Left cardiac atrium. Put plainly: Negative ionotropic activity in guinea pig left atrium assessed as decrease in developed tension driven at 1 Hz at 10^-5 M relative to control. The class given is functional, Cavia porcellus. Further details: scale not given: the % may be the effect or the level left.
In data set [2] the test system is Left cardiac atrium. The data set can be described thus: Negative ionotropic activity in guinea pig left atrium assessed as decrease in developed tension driven at 1 Hz. The class given is functional, tissue-based. The note with it: Cavia porcellus.
In data set [3] the test system is Right cardiac atrium. Put plainly: Negative chronotropic activity in guinea pig […] atrium assessed as decrease in atrial rate on spontaneous beating at 10^-6 M relative to control. The class given is functional, Cavia porcellus. Also noted: scale not given: the % may be the effect or the level left.
Data set [4] deals with Right cardiac atrium. The data set can be described thus: Negative chronotropic activity in guinea pig […] atrium assessed as decrease in atrial rate on spontaneous beating. To be noted: Cavia porcellus. The format is functional.
The species named for data set [5] is Cavia porcellus. Put plainly: Antagonist activity at Cav1.2a in K+-depolarized guinea pig aortic strips assessed as inhibition of calcium-induced contraction at 10^-4 M relative to control. The format is tissue-based. Further details: scale not given: the % may be the effect or the level left. The note with it: Aorta.
A short description of data set [6]: Antagonist activity at Cav1.2a in K+-depolarized guinea pig aortic strips assessed as inhibition of calcium-induced contraction. The note with it: Cavia porcellus, Aorta. The format is tissue-based.
Data set [7] concerns Cav1.2b. Put plainly: Antagonist activity at Cav1.2b in K+-depolarized guinea pig ileum longitudinal smooth muscle assessed as inhibition of calcium-induced contraction at 10^-6 M relative to control. The format is tissue-based, Cavia porcellus. The note with it: read-out: Activity.
Data set [8] is described as follows: Antagonist activity at Cav1.2b in K+-depolarized guinea pig ileum longitudinal smooth muscle assessed as inhibition of calcium-induced contraction. The format is tissue-based. The note with it: Cavia porcellus.
The nature of data set [9]: Selectivity ratio of IC50 for Cav1.2a in K+-depolarized guinea pig aortic strips to IC50 for Cav1.2b in K+-depolarized guinea pig ileum longitudinal smooth muscle. Also noted: species or system Cavia porcellus, Muscle tissue.
The test system of data set [10] is Left cardiac atrium. The data set can be described thus: Negative ionotropic activity in guinea pig left atrium assessed as decrease in developed tension driven at 1 Hz at 10^-6 M relative to control. The class given is functional, Cavia porcellus. Also noted: scale not given: the % may be the effect or the level left.
The subject of data set [11] is Right cardiac atrium. Put plainly: Negative chronotropic activity in guinea pig […] atrium assessed as decrease in atrial rate on spontaneous beating at 10^-4 M relative to control. The class given is functional, Cavia porcellus. Also noted: scale not given: the % may be the effect or the level left.
Data set [12] concerns Cav1.2b. Put plainly: Antagonist activity at Cav1.2b in K+-depolarized guinea pig ileum longitudinal smooth muscle assessed as inhibition of calcium-induced contraction at 10^-4 M relative to control. The class given is tissue-based, Cavia porcellus. To be noted: read-out: Activity.
Data set [13] has as its system Right cardiac atrium. The data set can be described thus: Negative chronotropic activity in guinea pig […] atrium assessed as decrease in atrial rate on spontaneous beating at 10^-5 M relative to control. Further details: scale not given: the % may be the effect or the level left. The format is functional, Cavia porcellus.
In data set [14] the test system is Left cardiac atrium. The data set can be described thus: Negative ionotropic activity in guinea pig left atrium assessed as decrease in developed tension driven at 1 Hz at 5 x 10^-6 M relative to control. The class given is functional, Cavia porcellus. Also noted: scale not given: the % may be the effect or the level left.
For data set [15], the system named is Left cardiac atrium. Put plainly: Ratio of diltiazem EC50 to compound EC50 for negative ionotropic activity in guinea pig left atrium assessed as decrease in developed tension driven at 1 Hz. The format is functional, Cavia porcellus.
Data set [16] in a line: Selectivity ratio of IC50 for Cav1.2b in K+-depolarized guinea pig ileum longitudinal smooth muscle to IC50 for Cav1.2a in K+-depolarized guinea pig aortic strips. Also noted: species or system Cavia porcellus, Muscle tissue.
For data set [17], the system named is Right cardiac atrium. Put plainly: Negative chronotropic activity in guinea pig […] atrium assessed as decrease in atrial rate on spontaneous beating at 5 x 10^-5 M relative to control. Also noted: scale not given: the % may be the effect or the level left. The format is functional, Cavia porcellus.
Data set [18] in a line: Selectivity ratio of IC50 for Cav1.2b in K+-depolarized guinea pig ileum longitudinal smooth muscle to EC50 for negative ionotropic activity in guinea pig left atrium. Further details: species or system Cavia porcellus, Muscle tissue.
Data set [19] is filed under the species Cavia porcellus. The data set can be described thus: Antagonist activity at Cav1.2a in K+-depolarized guinea pig aortic strips assessed as inhibition of calcium-induced contraction at 5 x 10^-5 M relative to control. The format is tissue-based. To be noted: Aorta. Further details: scale not given: the % may be the effect or the level left.
Data set [20] has as its system Cav1.2b. The data set can be described thus: Antagonist activity at Cav1.2b in K+-depolarized guinea pig ileum longitudinal smooth muscle assessed as inhibition of calcium-induced contraction at 5 x 10^-5 M relative to control. To be noted: read-out: Activity. The format is tissue-based, Cavia porcellus.
The subject of data set [21] is Right cardiac atrium. The data set can be described thus: Negative chronotropic activity in guinea pig […] atrium assessed as decrease in atrial rate on spontaneous beating at 5 x 10^-6 M relative to control. The format is functional, Cavia porcellus. Further details: scale not given: the % may be the effect or the level left.
The test system of data set [22] is Left cardiac atrium. Put plainly: Negative ionotropic activity in guinea pig left atrium assessed as decrease in developed tension driven at 1 Hz at 5 x 10^-7 M relative to control. Further details: scale not given: the % may be the effect or the level left. The class given is functional, Cavia porcellus.
In data set [23] the test system is Right cardiac atrium. The data set can be described thus: Negative chronotropic activity in guinea pig […] atrium assessed as decrease in atrial rate on spontaneous beating at 5 x 10^-8 M relative to control. The format is functional, Cavia porcellus. Further details: scale not given: the % may be the effect or the level left.
The species entered for data set [24] is Cavia porcellus. Put plainly: Antagonist activity at Cav1.2a in K+-depolarized guinea pig aortic strips assessed as inhibition of calcium-induced contraction at 5 x 10^-8 M relative to control. To be noted: Aorta. The format is tissue-based. Also noted: scale not given: the % may be the effect or the level left.
Data set [25] concerns Right cardiac atrium. Put plainly: Negative chronotropic activity in guinea pig […] atrium assessed as decrease in atrial rate on spontaneous beating at 5 x 10^-7 M relative to control. The format is functional, Cavia porcellus. Further details: scale not given: the % may be the effect or the level left.
Data set [26] concerns Cav1.2b. The data set can be described thus: Antagonist activity at Cav1.2b in K+-depolarized guinea pig ileum longitudinal smooth muscle assessed as inhibition of calcium-induced contraction at 5 x 10^-6 M relative to control. The class given is tissue-based, Cavia porcellus. The note with it: read-out: Activity.

As to `COc1ccc([C@@H]2Sc3ccccc3N(CCN(C)C)C(=O)[C@@H]2OC(C)=O)cc1` [DILTIAZEM], the Activity in the data set with Left cardiac atrium [1] is 78%; in the data set on Right cardiac atrium [3] it was 94%; in the data set filed under Cavia porcellus [5], 88%. Besides, the EC50 in the data set on Left cardiac atrium [2] was 790 nM. In addition, the EC30 with Right cardiac atrium [4] worked out at 70 nM. Further, the results for the IC50 in data set [6] and in [8] were 2600 nM and 110 nM, respectively. Moreover, the inhibition at 1 µM in the data set with Cav1.2b [7] was 98%. Also, the “Ratio IC50” value in data set [9] is 24.

On to `CC1=CS[C@@](OCC(F)(F)F)(c2ccc(Br)cc2)c2noc(=O)n21`, for which the figures for the Activity in the data set on Left cardiac atrium [10], in the data set on Right cardiac atrium [11] and in the data set filed under Cavia porcellus [5] were 82%, 16% and 12%, respectively. Moreover, in the data set with Left cardiac atrium [2], the EC50 was determined as 34 nM. Moreover, in the data set with Cav1.2b [12], the inhibition at 100 µM was 85%. The IC50 in data set [8] was determined as 19000 nM.

`CC1=CSC(OCC(F)(F)F)(c2ccc(Br)cc2)c2noc(=O)n21` (racemic): the EC50 with Left cardiac atrium [2] worked out at 22 nM. Further, the results for the Activity in the data set on Right cardiac atrium [13], in the data set listed under Cavia porcellus [5] and with Left cardiac atrium [14] were 4%, 28% and 76%, respectively. The inhibition at 100 µM in the data set on Cav1.2b [12] was 73%. Also, the IC50 in data set [8] worked out at 25900 nM. For the same compound, the “Ratio EC50” value in the data set with Left cardiac atrium [15] stood at 36.

Take `CCOC1(c2ccc(Br)cc2)Sc2ccccc2-n2c1noc2=O` (racemic): the Activity with Left cardiac atrium [10] came out at 81%; in the data set on Right cardiac atrium [11], 7%; in the data set listed under Cavia porcellus [5], 4%. Also, the EC50 in the data set on Left cardiac atrium [2] was 13 nM. For the same compound, the IC50 in [6] turned out to be 13 nM; in [8], 8320 nM. Moreover, the inhibition at 100 µM in the data set with Cav1.2b [12] came to 87%. Besides, the “Ratio IC50” value in data set [16] worked out at 640.

Turning to `CCO[C@@]1(c2ccc(Br)cc2)SC=C(C)n2c1noc2=O`, the Activity in the data set with Left cardiac atrium [10] was 58%; in the data set listed under Cavia porcellus [5], 7%; in the data set with Right cardiac atrium [17], 15%.

Take `O=c1onc2n1-c1ccccc1SC2(OCC(F)(F)F)c1ccc(Br)cc1` (racemic): the Activity was found to be 75% in the data set with Left cardiac atrium [10], 7% in the data set with Right cardiac atrium [11] and 21% in the data set listed under Cavia porcellus [5]. Further, the EC50 in the data set with Left cardiac atrium [2] was 6 nM. For the same compound, in the data set with Cav1.2b [12], the inhibition at 100 µM came to 54%. For the same compound, the IC50 in data set [8] is 11800 nM. Moreover, the Selectivity ratio in data set [18] is on record as 1965.

With `CCO[C@@]1(c2ccc(Br)cc2)Sc2ccccc2-n2c1noc2=O`, the Activity in the data set listed under Cavia porcellus [19] came to 2%; in the data set on Left cardiac atrium [14], 25%; in the data set with Right cardiac atrium [21] it was 10%. In addition, the inhibition at 50 µM with Cav1.2b [20] worked out at 60%. The IC50 in [8] was found to be 5190 nM.

Take `CCO[C@]1(c2ccc(Br)cc2)SC=C(C)n2c1noc2=O`: the Activity with Left cardiac atrium [10] amounted to 77%; with Right cardiac atrium [13], 16%; in the data set listed under Cavia porcellus [5], 11%. For the same compound, the EC50 with Left cardiac atrium [2] came out at 70 nM.

Turning to `CC1=CS[C@](OCC(F)(F)F)(c2ccc(Br)cc2)c2noc(=O)n21`, the EC50 with Left cardiac atrium [2] was 26 nM. Further, the Activity in the data set listed under Cavia porcellus [5] came to 9%; in the data set with Left cardiac atrium [14], 82%; in the data set on Right cardiac atrium [17], 40%. The inhibition at 100 µM in the data set on Cav1.2b [12] was found to be 98%. In data set [8], the IC50 was 12200 nM.

`O=c1onc2n1-c1ccccc1S[C@@]2(OCC(F)(F)F)c1ccc(Br)cc1`: the Activity with Left cardiac atrium [22] was found to be 52%; in the data set on Right cardiac atrium [23], 25%; in the data set listed under Cavia porcellus [24] it was 28%. Also, the EC50 with Left cardiac atrium [2] is 11 nM. For the same compound, the inhibition at 100 µM in the data set on Cav1.2b [12] amounted to 47%.

Regarding `CCO[C@]1(c2ccc(Br)cc2)Sc2ccccc2-n2c1noc2=O`, the values for the Activity with Left cardiac atrium [22], in the data set on Right cardiac atrium [25] and in the data set filed under Cavia porcellus [19] were 64%, 20% and 8%, respectively. In the data set with Left cardiac atrium [2], the EC50 stood at 9.3 nM. Moreover, the inhibition at 5 µM in the data set on Cav1.2b [26] worked out at 78%. For the same compound, in [8], the IC50 stood at 20 nM.

Turning to `O=c1onc2n1-c1ccccc1S[C@]2(OCC(F)(F)F)c1ccc(Br)cc1`, the Activity with Left cardiac atrium [10] came to 77%; with Right cardiac atrium [13] it was 24%; in the data set listed under Cavia porcellus [5], 1%. The EC50 in the data set on Left cardiac atrium [2] stood at 9.8 nM. For the same compound, the inhibition at 100 µM in the data set on Cav1.2b [12] was 54%. Besides, in [8], the IC50 was 4580 nM.

Consider `CCOC1(c2ccc(Br)cc2)SC=C(C)n2c1noc2=O` (racemic), for which the Activity came to 78% in the data set with Left cardiac atrium [10], 5% with Right cardiac atrium [11] and 19% in the data set filed under Cavia porcellus [5]. In addition, in the data set on Left cardiac atrium [2], the EC50 worked out at 40 nM. For the same compound, the inhibition at 100 µM in the data set with Cav1.2b [12] worked out at 3%. Further, the “Ratio EC50” value with Left cardiac atrium [15] was found to be 20.

These data come from ChEMBL document CHEMBL3407488, “Synthesis and L-type calcium channel blocking activity of new chiral oxadiazolothiazinones” (Eur J Med Chem, 2015).
